Source: patent publication US20030229053A1, “Compounds and methods for the treatment or prevention of flavivirus infections” (Shire BioChem Inc., priority 2001, published 2003)

Target: HCV NS5B RNA-dependent RNA polymerase (Hepatitis C virus genotype 1b, UniProt P26663)
Assay: In vitro RNA-dependent RNA polymerase assay (Assay 1), polyA/oligo dT, TCA precipitation
Type: biochemical
Settings: polyA/oligo dT template/primer, 200 ng NS5B, 2 h at 22° C.; read-out: RNA pol Assay 1 IC50 (μm)
Outline: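 Purified NS5B (200 ng) on annealed polyA/oligo dT15 in 20 mM Tris-HCl pH 7.5, 50 mM NaCl, 5 mM MgCl2, 1 mM DTT, 15 µM cold UTP plus [32P]-UTP, 2 h at 22°C. Product TCA-precipitated, filtered onto glass-fibre and counted by liquid scintillation.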

HCV NS5B RNA-dependent RNA polymerase, sequence (P26663 2420-3010 limits assumed): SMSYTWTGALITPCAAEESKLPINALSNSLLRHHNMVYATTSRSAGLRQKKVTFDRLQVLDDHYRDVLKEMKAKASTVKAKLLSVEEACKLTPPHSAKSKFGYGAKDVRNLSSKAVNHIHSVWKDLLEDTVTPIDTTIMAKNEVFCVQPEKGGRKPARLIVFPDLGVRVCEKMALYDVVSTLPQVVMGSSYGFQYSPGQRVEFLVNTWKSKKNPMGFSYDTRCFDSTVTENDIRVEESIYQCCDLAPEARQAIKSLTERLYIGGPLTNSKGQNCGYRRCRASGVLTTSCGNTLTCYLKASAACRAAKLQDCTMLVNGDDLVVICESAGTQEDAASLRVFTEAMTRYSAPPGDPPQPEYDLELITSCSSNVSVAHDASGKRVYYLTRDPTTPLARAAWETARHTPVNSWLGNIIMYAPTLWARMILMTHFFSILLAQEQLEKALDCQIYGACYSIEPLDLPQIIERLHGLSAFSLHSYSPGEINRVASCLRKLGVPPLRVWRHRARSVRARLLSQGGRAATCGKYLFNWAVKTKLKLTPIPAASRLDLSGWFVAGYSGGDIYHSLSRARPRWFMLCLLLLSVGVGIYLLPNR

| Compound | IC50 [µM] |
| --- | --- |
| O=C(O)[C@H](Cc1ccccc1)N(Cc1ccc(-c2ccc(Cl)s2)s1)C(=O)c1ccc(Cl)cc1Cl [compound #128, (2s)-2-[(5′-Chloro-[2,2′]bithiophenyl-5-ylmethyl)-(2,4-dichloro-benzoyl)-amino]-3-phenyl-propionic acid] | < 5 |
| O=C(O)[C@H](Cc1ccccc1)N(Cc1cc(-c2cc(F)cc(F)c2)cs1)C(=O)c1ccc(Cl)cc1Cl [compound #129, (2s)-2-{(2,4-Dichloro-benzoyl)-[4-(3,5-difluoro-phenyl)-thiophen-2-ylmethyl]-amino}-3-phenyl-propionic acid] | < 5 |
| O=C(O)[C@H](Cc1ccccc1)N(Cc1cc(-c2cccc(F)c2)cs1)C(=O)c1ccc(Cl)cc1Cl [compound #130, (2s)-2-{(2,4-Dichloro-benzoyl)-[4-(3-fluoro-phenyl)-thiophen-2-ylmethyl]-amino}-3-phenyl-propionic acid] | < 5 |
| O=C(O)[C@H](Cc1ccccc1)N(Cc1ccc(-c2cccc(C(F)(F)F)c2)o1)C(=O)c1ccc(Cl)cc1I [compound #131, (2s)-2-{(4-Chloro-2-iodo-benzoyl)-[5-(3-trifluoromethyl-phenyl)-furan-2-ylmethyl]-amino}-3-phenyl-propionic acid] | < 5 |
| O=C(O)[C@H](Cc1ccccc1)N(Cc1cc(-c2ccc(Cl)s2)cs1)C(=O)c1ccc(Cl)cc1Cl [compound #133, (2s)-2-[(5-Chloro-[2,3′]bithiophenyl-5′-ylmethyl)-(2,4-dichloro-benzoyl)-amino]-3-phenyl-propionic acid] | < 5 |
| COc1ccc(-c2ccc(CN(C(=O)c3ccc(Cl)cc3Cl)[C@@H](Cc3ccccc3)C(=O)O)o2)cc1 [compound #134, (2s)-2-{(2,4-Dichloro-benzoyl)-[5-(4-methoxy-phenyl)-furan-2-ylmethyl]-amino}-3-phenyl-propionic acid] | < 5 |
| COc1ccc(-c2ccc(CN(C(=O)c3ccc(Cl)cc3Cl)[C@@H](Cc3ccccc3)C(=O)O)s2)cc1 [compound #135, (2s)-2-{(2,4-Dichloro-benzoyl)-[5-(4-methoxy-phenyl)-thiophen-2-ylmethyl]-amino}-3-phenyl-propionic acid] | < 5 |
| COc1ccc(-c2csc(CN(C(=O)c3ccc(Cl)cc3Cl)[C@@H](Cc3ccccc3)C(=O)O)c2)cc1 [compound #136, (2s)-2-{(2,4-Dichloro-benzoyl)-[4-(4-methoxy-phenyl)-thiophen-2-ylmethyl]-amino}-3-phenyl-propionic acid] | < 5 |
| O=C(O)[C@H](Cc1ccccc1)N(Cc1ccc(-c2ccncc2)o1)C(=O)c1ccc(Cl)cc1Cl [compound #137, (2s)-2-[(2,4-Dichloro-benzoyl)-(5-pyridin-4-yl-furan-2-ylmethyl)-amino]-3-phenyl-propionic acid] | < 5 |
| O=C(O)[C@H](Cc1ccccc1)N(Cc1ccc(-c2ccncc2)s1)C(=O)c1ccc(Cl)cc1Cl [compound #138, (2s)-2-[(2,4-Dichloro-benzoyl)-(5-pyridin-4-yl-thiophen-2-ylmethyl)-amino]-3-phenyl-propionic acid] | < 5 |
| O=C(O)[C@H](Cc1ccccc1)N(Cc1cc(-c2ccncc2)cs1)C(=O)c1ccc(Cl)cc1Cl [compound #139, (2s)-2-[(2,4-Dichloro-benzoyl)-(4-pyridin-4-yl-thiophen-2-ylmethyl)-amino]-3-phenyl-propionic acid] | < 5 |

Target: recombinant HCV NS5B (Hepatitis C virus genotype 1b, UniProt P26663)
Sequence (P26663 2420-3010 limits assumed): as above
Assay: biochemical
Settings: flashplate, polyrA/biotinylated-oligo dT, 100 nM NS5B, 2 hrs at room temperature; read-out: RNA pol Assay 2 IC50 (μm)
Experimental: In vitro HCV RdRp Flashplate Scintillation Proximity Assay (Strep-Flash Assay) Used to Evaluate Analogues:
In brief, a 400 ng/μl polyrA solution (Amersham Pharmacia Biotech) was mixed volume-to-volume with 5′ biotin-oligo dT12 at 20 pmol/μl. The template and primers were denatured at 95 C for 5 minutes then incubated at 37 C for 10 minutes. Annealed template-primers were subsequently diluted in a Tris-HCl containing buffer and allowed to bind to streptavidin-coated flashplates overnight.

| Compound | IC50 [µM] |
| --- | --- |
| CC(c1cccc(C#N)c1)N(C(=O)c1ccc(Cl)cc1Cl)[C@@H](Cc1ccccc1)C(=O)O (stereo in doubt) [Compound #205, 2-[[1-(3-CYANO-PHENYL)-ETHYL]-(2,4-DICHLORO-BENZOYL)-AMINO]-3PHENYL-PROPIONIC ACID] | 5 to 20 |
| O=C(O)C(Cc1ccccc1)N(Cc1cc(Cl)cc(Cl)c1)C(=O)c1ccc(Cl)cc1Cl (stereo in doubt) [compound #142, (2s)-2-[(2,4-Dichloro-benzoyl)-(3,5-dichloro-benzyl)-amino]-3-phenyl-propionic acid] | < 5 |
| O=C(O)C(Cc1ccccc1)N(Cc1ccsc1)C(=O)c1ccc(Cl)cc1Cl (stereo in doubt) [compound #143, (2s)-2-[(2,4-Dichloro-benzoyl)-thiophen-3-ylmethyl-amino]-3-phenyl-propionic acid] | < 5 |
| O=C(O)[C@H](Cc1ccccc1)N(C[C@H]1CCCN1)C(=O)c1ccc(Cl)cc1Cl (stereo in doubt) [compound #168, d-2-[(2,4-Dichloro-benzoyl)-pyrrolidin-2-ylmethyl-amino]-3-phenyl-propionic acid] | 5 to 20 |
| CN(C(=O)c1ccc(Cl)cc1Cl)[C@H](Cc1ccc(Br)s1)C(=O)O (stereo in doubt) [compound #169, 3-(5-Bromo-thiophen-2-yl)-2-[(2,4-dichloro-benzoyl)-methyl-amino]-propionic acid] | < 5 |
| CN(C(=O)c1ccc(Cl)cc1Cl)[C@H](Cc1ccc(-c2cc3ccccc3o2)cc1)C(=O)O [Compound #29, 3-(4-Benzofuran-2-yl-phenyl)-2-[(2,4-dichloro-benzoyl)-methyl-amino]-propionic acid] | 5 to 20 |
| O=C(O)[C@H](Cc1ccccc1)N(Cc1cccc([N+](=O)[O-])c1)C(=O)c1ccc(Cl)cc1Cl [Compound #53, (2S)-2-[(2,4-Dichloro-benzoyl)-(3-nitro-benzyl)-amino]-3-phenyl-propionic acid] | < 5 |
| COC(=O)c1cccc(CN(C(=O)c2ccc(Cl)cc2Cl)[C@@H](Cc2ccccc2)C(=O)O)c1 [Compound #117, 3-{[(1-Carboxy-2-phenyl-ethyl)-(2,4-dichloro-benzoyl)-amino]-methyl}-benzoic acid methyl ester] | < 5 |
| N#Cc1cccc(-c2ccc(CN(C(=O)c3ccc(Cl)cc3Cl)[C@@H](Cc3ccccc3)C(=O)O)o2)c1 [Compound #119, 2-[[5-(3-Cyano-phenyl)-furan-2-ylmethyl]-(2,4-dichloro-benzoyl)-amino]-3-phenyl-propionic acid] | < 5 |
| Cc1ccc(C(=O)N(Cc2cc(-c3ccc(F)c(Cl)c3)cs2)[C@@H](Cc2ccccc2)C(=O)O)c(C)c1 [Compound #192, 2-[[4-(3-Chloro-4-fluoro-phenyl)-thiophen-2-ylmethyl]-(2,4-dimethyl-benzoyl)-amino]-3-phenyl-propionic acid] | < 5 |
| O=C(O)c1cccc(CN(C(=O)c2ccc(Cl)cc2Cl)[C@@H](Cc2ccccc2)C(=O)O)c1 [Compound #193, 3-{[(1-Carboxy-2-phenyl-ethyl)-(2,4-dichloro-benzoyl)-amino]-methyl}-benzoic acid] | < 5 |
| Nc1cccc(CN(C(=O)c2ccc(Cl)cc2Cl)[C@@H](Cc2ccccc2)C(=O)O)c1 [Compound #194, 2-[(3-Amino-benzyl)-(2,4-dichloro-benzoyl)-amino]-3-phenyl-propionic acid] | 5 to 20 |
| O=C(O)[C@@H](Cc1ccccc1)N(Cc1ccccc1)C(=O)c1ccc(Cl)cc1Cl [Compound #199, 2-[Benzyl-(2,4-dichloro-benzoyl)-amino]-3-phenyl-propionic acid] | 5 to 20 |
| O=C(O)C(Cc1ccccc1)N(Cc1cccc(-c2nn[nH]n2)c1)C(=O)c1ccc(Cl)cc1Cl (stereo not drawn) [Compound #200, 2-{(2,4-DICHLORO-BENZOYL)-[3-(2H-TETRAZOL-5-YL)-BENZYL]-AMINO}-3-PHENYL-PROPIONIC ACID] | < 5 |
| O=C(O)[C@H](Cc1ccccc1)N(Cc1ccccc1[N+](=O)[O-])C(=O)c1ccc(Cl)cc1Cl [Compound #201, 2-[(2,4-DICHLORO-BENZOYL)-(2-NITRO-BENZYL)-AMINO]-3-PHENYL-PROPIONIC ACID] | 5 to 20 |
| O=C(O)[C@H](Cc1ccccc1)N(Cc1ccc([N+](=O)[O-])cc1)C(=O)c1ccc(Cl)cc1Cl [Compound #202, 2-[(2,4-DICHLORO-BENZOYL)-(4-NITRO-BENZYL)-AMINO]-3-PHENYL-PROPIONIC] | 5 to 20 |
| N#Cc1ccccc1CN(C(=O)c1ccc(Cl)cc1Cl)[C@@H](Cc1ccccc1)C(=O)O [Compound #203, 2-[(2-CYANO-BENZYL)-(2,4-DICHLORO-BENZOYL)-AMINO]-3-PHENYL-PROPIONIC ACID] | 5 to 20 |
| N#Cc1ccc(CN(C(=O)c2ccc(Cl)cc2Cl)[C@@H](Cc2ccccc2)C(=O)O)cc1 [Compound #204, 2-[(4-CYANO-BENZYL)-(2,4-DICHLORO-BENZOYL)-AMINO]-3-PHENYL-PROPIONIC ACID] | 5 to 20 |
| CS(=O)(=O)c1cccc(CN(C(=O)c2ccc(Cl)cc2Cl)[C@@H](Cc2ccccc2)C(=O)O)c1 [Compound #208, 2-[(2,4-DICHLORO-BENZOYL)-(3-METHANESULFONYL-BENZYL)-AMINO]-3-PHENYL-PROPIONIC ACID] | 5 to 20 |
| CC(=O)c1cccc(CN(C(=O)c2ccc(Cl)cc2Cl)[C@@H](Cc2ccccc2)C(=O)O)c1 [Compound #209, 2-[(3-ACETYL-BENZYL)-(2,4-DICHLORO-BENZOYL)-AMINO]-3-PHENYL-PROPIONIC ACID] | < 5 |
| O=C(O)[C@H](Cc1ccccc1)N(Cc1ccc[n+]([O-])c1)C(=O)c1ccc(Cl)cc1Cl [Compound #210, 2-[(2,4-DICHLORO-BENZOYL)-(1-OXY-PYRIDIN-3-YLMETHYL)-AMINO]-3-PHENYL-PROPIONIC ACID] | < 5 |
| O=C(O)[C@H](Cc1ccccc1)N(Cc1ccc(-c2cccc(C(F)(F)F)c2)s1)C(=O)c1ccc(Cl)cc1Cl [Compound #211, 2-{(2,4-Dichloro-benzoyl)-[5-(3-trifluoromethyl-phenyl)-thiophen-2-ylmethyl]-amino}-3-phenyl-propionic acid] | 5 to 20 |
